Peptide text beside a SMILES is read from it. * marks the point of attachment. Hydrocinnamoyl = O=C(CCc1ccccc1)*; PhAc = O=C(Cc1ccccc1)*
Experiments:
[1] = system: Experimental Amnesia caused in Rats by Scopolamine; experiment: Preventive effect against experimental amnesia caused in rats by scopolamine (passive avoidance, intraperitoneal administration); assay type: in vivo, Wister male rats; details: for No. of amnesic rats/No. of rats tested / Percentage amnesia / Avoidance time After 24 hrs. / Avoidance time After 48 hrs.: i.p., scopolamine 3 mg/kg i.p.
Experimental: Several of the anti-prolyl endopeptidase compounds according to the present invention were checked for their ability to prevent the inhibition of long-term memory fixation by scopolamine. […] One hour after the administration, electric shocks were applied to the rats so that they would acquire passive avoidance learning. Immediately thereafter, scopolamine was administered intraperitoneally to each rat in an amount of 3 mg per kg of body weight.
The results of the test were assessed both 24 hours and 48 hours after the administration of scopolamine. The number of amnesic rats and of sound rats was counted for each of the control group (rats to which the test compounds were not administered but to which only scopolamine and physiological saline were administered intraperitoneally) and the treated group (rats to which both the test compound and scopolamine were administered).

[2] = biological target: prolyl endopeptidase (Elizabethkingia meningoseptica, UniProt P27028); experiment: Measurement of anti-prolyl endopeptidase activity (decomposition of Z-glycyl-prolyl-β-naphthylamide); assay type: biochemical; details: substrate Z-glycyl-proline-β-naphthylamide, phosphate buffer pH 7.0
prolyl endopeptidase, sequence (P27028 21-705): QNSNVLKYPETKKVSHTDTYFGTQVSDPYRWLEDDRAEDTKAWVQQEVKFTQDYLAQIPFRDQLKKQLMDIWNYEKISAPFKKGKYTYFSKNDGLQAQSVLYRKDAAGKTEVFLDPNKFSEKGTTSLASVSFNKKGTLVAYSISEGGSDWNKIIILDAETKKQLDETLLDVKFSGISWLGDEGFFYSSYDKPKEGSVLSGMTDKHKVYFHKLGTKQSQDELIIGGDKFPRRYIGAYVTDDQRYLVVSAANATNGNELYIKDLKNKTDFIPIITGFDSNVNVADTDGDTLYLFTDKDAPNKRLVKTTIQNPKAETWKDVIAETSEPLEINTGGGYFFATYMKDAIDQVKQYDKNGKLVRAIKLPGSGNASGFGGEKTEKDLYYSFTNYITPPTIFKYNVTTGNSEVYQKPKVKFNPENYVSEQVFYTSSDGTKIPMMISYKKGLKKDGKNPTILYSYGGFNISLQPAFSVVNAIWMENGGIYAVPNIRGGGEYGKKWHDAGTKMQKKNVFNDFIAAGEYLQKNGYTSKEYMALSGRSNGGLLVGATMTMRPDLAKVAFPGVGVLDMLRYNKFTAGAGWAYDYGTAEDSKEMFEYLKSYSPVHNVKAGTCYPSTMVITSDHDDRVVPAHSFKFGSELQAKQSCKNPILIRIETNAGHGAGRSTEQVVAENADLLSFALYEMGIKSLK
Experimental: The method of Yoshimoto and Tsuru (T. Yoshimoto and D. Tsuru, Agr. Biol. Chem. 42, 2417, 1978) was used to measure the anti-prolyl endopeptidase activities of several compounds according to the present invention. A mixture of 0.0025M Z--glycyl--proline--β--naphthylamide (0.25 ml), 0.1M phosphate buffer (pH 7.0; 0.99 ml) and a solution of a particular anti-prolyl endopeptidase compound (0.01 ml) was incubated in a test tube at 37° C. for 3 minutes. Thereafter […] of a solution of prolyl endopeptidase (0.2 U/ml) was added and the mixture was heated at 35° C. for 10 minutes. After the reaction, 2.0 ml of Triton x-100 in 1M acetate buffer (pH 4.0) was added to the reaction mixture until the final concentration of the surfactant was 10%. The mixture was left at a room temperature for 15 minutes and the absorbance (a) at 410 nm was measured.
A sample for a blind test was prepared by using the buffer solely in place of the anti-prolyl endopeptidase compound and its absorbance (b) was also measured. The percent inhibition of prolyl endopeptidase was calculated by the formula: [(b-a)/b]×100, and the amount of a specific compound needed to achieve 50% inhibition (IC50) was determined.

[3] = system: CDF-1 strain male mice; experiment: Acute toxicity test in mice; assay type: in vivo; details: i.p. in DMSO, five mice per group, observed 24 and 48 hours after administration
Experimental: The compounds of the present invention were checked for their acute toxicity in CDF-1 strain male mice (body weight: 27.2 to 30.1 g) purchased from Awazu Laboratory Animals Co., Ltd.
Test samples were prepared by dissolving the respective compounds in DMSO, and a portion (0.1 ml) of the so conditioned test sample was administered intraperitoneally to each of the mice used. Each of the treated groups consisted of five mice. After 24 hours and 48 hours had passed from the time of administration, respectively, the mice were observed.

[4] = system: Male mice of ddY-strain; experiment: Anti-hypoxia effect (survival time at 180 mmHg); assay type: in vivo; details: for No. of survival/used, Drug / Survival time, Drug (Mean ± S.E.): mice, 180 mmHg
Experimental: Male mice of ddY-strain weighing 25 to 34 g were allotted to groups consisting of 7 to 10 animals each. Each compound to be tested was suspended in physiological saline with 2 to 3 drops of Tween 80® added thereto, and administered intraperitoneally at the rate of 0.1 ml per 10 g of body weight.
Each mouse was put into a 1 l desiccator 30 minutes after the administration, and the pressure in the desiccator was reduced to 180 mmHg by means of a vacuum pump. The period from the start of pressure reduction to the respiratory arrest of the mouse was assumed to be the survival time (minute) of the mouse.
If the mouse survived more than 15 minutes, its survival time was recorded as being 15 minutes. A student's t-test was adopted for the significance analysis.

In the case of C[C@H](NC(=O)CCCc1ccccc1)C(=O)N1CCC[C@H]1C=O [SUAM 1110, N--(4-phenyl)butanoyl--Ala--Pro--CHO], the “anti-amnesic effect (in words)” value ([1]; 0.025 mg/kg administered) is reported as “very strong effects”, the “anti-amnesic effect (in words)” value ([1]; 0.1 mg/kg administered) is reported as “very strong effects” and the “No. of amnesic rats/No. of rats tested” value ([1]; 250 μg/kg) is reported as 0/10. For the same compound, the Percentage amnesia ([1]; 250 μg/kg) was 0, the “Avoidance time After 24 hrs.” value ([1]; 250 μg/kg) was 300.0 s and the “Avoidance time After 48 hrs.” value ([1]; 250 μg/kg) was 300.0 s. For the same compound, the “No. of amnesic rats/No. of rats tested” value ([1]; 1 mg/kg) was 1/10, the Percentage amnesia ([1]; 1 mg/kg) was 10 and the “Avoidance time After 24 hrs.” value ([1]; 1 mg/kg) was 272.8 s. For the same compound, the “Avoidance time After 48 hrs.” value ([1]; 1 mg/kg) was 271.2 s and the “anti-amnesic effect (in words)” value ([1]; administration of 1 mg/kg) was “did not manifest the desired effect”.
For CC(C)CC(NC(=O)CCCc1ccccc1)C(=O)N1CCCC1C=O (stereo not shown) [SUAM 1115, N--(4-phenyl)butanoyl--Leu--Pro--CHO], the “No. of amnesic rats/No. of rats tested” value ([1]; 25 μg/kg) was 0/10, the Percentage amnesia ([1]; 25 μg/kg) was 0 and the “Avoidance time After 24 hrs.” value ([1]; 25 μg/kg) was 300.0 s. For the same compound, the “Avoidance time After 48 hrs.” value ([1]; 25 μg/kg) was 300.0 s, the “anti-amnesic effect (in words)” value ([1]; 0.025 mg/kg administered) was “very strong effects” and the “No. of amnesic rats/No. of rats tested” value ([1]; 100 μg/kg) was 0/10. The Percentage amnesia ([1]; 100 μg/kg) was 0, the “Avoidance time After 24 hrs.” value ([1]; 100 μg/kg) was 300.0 s and the “Avoidance time After 48 hrs.” value ([1]; 100 μg/kg) was 300.0 s. The “anti-amnesic effect (in words)” value ([1]; 0.1 mg/kg administered) was “very strong effects”, the “No. of amnesic rats/No. of rats tested” value ([1]; 250 μg/kg) was 3/10 and the Percentage amnesia ([1]; 250 μg/kg) was 30. For the same compound, the “Avoidance time After 24 hrs.” value ([1]; 250 μg/kg) was 193.2 s, the “Avoidance time After 48 hrs.” value ([1]; 250 μg/kg) was 217.1 s and the “anti-amnesic effect (in words)” value ([1]; administration of 1 mg/kg) was “did not manifest the desired effect”. The “IC50 (amount needed to achieve 50% inhibition of prolyl endopeptidase)” value [2] was 0.3 ng/test tube.
For CC(C)[C@H](NC(=O)CCCc1ccccc1)C(=O)N1CCC[C@H]1C=O [SUAM 1117, N--(4-phenyl)butanoyl--Val--Pro--CHO], the “No. of amnesic rats/No. of rats tested” value ([1]; 25 μg/kg) was 1/10, the Percentage amnesia ([1]; 25 μg/kg) was 10 and the “Avoidance time After 24 hrs.” value ([1]; 25 μg/kg) was 300.0 s. For the same compound, the “Avoidance time After 48 hrs.” value ([1]; 25 μg/kg) was 289.5 s, the “anti-amnesic effect (in words)” value ([1]; 0.025 mg/kg administered) was “very strong effects” and the “No. of amnesic rats/No. of rats tested” value ([1]; 100 μg/kg) was 0/10. For the same compound, the Percentage amnesia ([1]; 100 μg/kg) was 0, the “Avoidance time After 24 hrs.” value ([1]; 100 μg/kg) was 300.0 s and the “Avoidance time After 48 hrs.” value ([1]; 100 μg/kg) was 300.0 s. For the same compound, the “anti-amnesic effect (in words)” value ([1]; 0.1 mg/kg administered) was “very strong effects”, the “No. of amnesic rats/No. of rats tested” value ([1]; 250 μg/kg) was 4/10 and the Percentage amnesia ([1]; 250 μg/kg) was 40. For the same compound, the “Avoidance time After 24 hrs.” value ([1]; 250 μg/kg) was 232.0 s, the “Avoidance time After 48 hrs.” value ([1]; 250 μg/kg) was 194.4 s and the “No. of amnesic rats/No. of rats tested” value ([1]; 1 mg/kg) was 6/10. The Percentage amnesia ([1]; 1 mg/kg) was 60, the “Avoidance time After 24 hrs.” value ([1]; 1 mg/kg) was 161.6 s and the “Avoidance time After 48 hrs.” value ([1]; 1 mg/kg) was 125.0 s. The “anti-amnesic effect (in words)” value ([1]; administration of 1 mg/kg) was “did not manifest the desired effect” and the “IC50 (amount needed to achieve 50% inhibition of prolyl endopeptidase)” value [2] was 0.2 ng/test tube.
In the case of O=C[C@@H]1CCCN1C(=O)[C@@H]1CCCN1C(=O)CCCc1ccccc1 [SUAM 1231, N--(4-phenyl)butanoyl--Pro--Pro--CHO], the “No. of amnesic rats/No. of rats tested” value ([1]; 20 μg/kg) is reported as 0/10, the Percentage amnesia ([1]; 20 μg/kg) is reported as 0 and the “Avoidance time After 24 hrs.” value ([1]; 20 μg/kg) is reported as 300.0 s. For the same compound, the “anti-amnesic effect (in words)” value ([1]; at 0.020 mg/kg) was “strong effect”, the “IC50 (amount needed to achieve 50% inhibition of prolyl endopeptidase)” value [2] was 0.2 ng/test tube and the “Average-Dose at which the mice remained sound and showed no sign of intoxication” value [3] was 634.6 mg/kg.
O=C[C@@H]1CCCN1C(=O)[C@H](Cc1ccccc1)NC(=O)CCCc1ccccc1 [SUAM 1234, N--(4-phenyl)butanoyl--Phe--Pro--CHO] was tested, and the “Survival time Ratio (Drug/Control)” value ([4]; 1 mg/kg i.p.) was 1.24, the “No. of survival/used, Drug” value ([4]; 1 mg/kg i.p.) was 0/7 and the “Survival time, Drug (Mean ± S.E.)” value ([4]; 1 mg/kg i.p., control 2.32 ± 0.11, *P < 0.05) was 2.88 ± 0.17 min. For the same compound, the “Survival time Ratio (Drug/Control)” value ([4]; 10 mg/kg i.p.) was 1.09, the “No. of survival/used, Drug” value ([4]; 10 mg/kg i.p.) was 0/7 and the “Survival time, Drug (Mean ± S.E.)” value ([4]; 10 mg/kg i.p., control 2.25 ± 0.15) was 2.45 min. For the same compound, the “IC50 (amount needed to achieve 50% inhibition of prolyl endopeptidase)” value [2] was 0.3 ng/test tube.
For CCCCC(NC(=O)CCCc1ccccc1)C(=O)N1CCCC1C=O (stereo not shown) [SUAM 1333, N--(4-phenyl)butanoyl--norLeu--Pro--CHO], the “No. of amnesic rats/No. of rats tested” value ([1]; 20 μg/kg) was 0/10, the Percentage amnesia ([1]; 20 μg/kg) was 0 and the “Avoidance time After 24 hrs.” value ([1]; 20 μg/kg) was 300.0 s. For the same compound, the “anti-amnesic effect (in words)” value ([1]; at 0.020 mg/kg) was “strong effect”, the “IC50 (amount needed to achieve 50% inhibition of prolyl endopeptidase)” value [2] was 0.4 ng/test tube and the “Average-Dose at which the mice remained sound and showed no sign of intoxication” value [3] was 707.7 mg/kg.
O=C[C@@H]1CCCN1C(=O)[C@@H]1CCCN1C(=O)Cc1ccccc1 [SUAM 1336, N--(2-phenyl)acetyl--Pro--Pro--CHO] (PhAc-Pro-Pro-aldehyde) was tested, and the “IC50 (amount needed to achieve 50% inhibition of prolyl endopeptidase)” value [2] was 1.0 ng/test tube.
With O=C[C@@H]1CCCN1C(=O)[C@@H]1CCCN1C(=O)CCc1ccccc1 [SUAM 1339, N--(3-phenyl)propionyl--Pro--Pro--CHO] (Hydrocinnamoyl-Pro-Pro-aldehyde) the “IC50 (amount needed to achieve 50% inhibition of prolyl endopeptidase)” value [2] was 0.4 ng/test tube.
For O=C[C@@H]1CCCN1C(=O)[C@@H]1CCCN1C(=O)CCCCc1ccccc1 [SUAM 1342, N--(5-phenyl)pentanoyl--Pro--Pro--CHO], the “IC50 (amount needed to achieve 50% inhibition of prolyl endopeptidase)” value [2] was 0.2 ng/test tube.
For CSCC[C@H](NC(=O)CCCc1ccccc1)C(=O)N1CCC[C@H]1C=O [SUAM 1345, N--(4-phenyl)butanoyl--Met--Pro--CHO], the “IC50 (amount needed to achieve 50% inhibition of prolyl endopeptidase)” value [2] was 0.7 ng/test tube.

Source: patent US4873342A, “Dipeptide derivative and synthesis and use thereof” (Suntory Limited, priority 1985, dated 1989)
